# Results reported in patent EP2140864A2 (H. Lundbeck A/S, priority 2001, dated 2002).
# Molecular target: T1, human GAL3 receptor (Homo sapiens, UniProt O60755)
# T1 construct: expressed in transfected cells
# T1 sequence (O60755 1-368): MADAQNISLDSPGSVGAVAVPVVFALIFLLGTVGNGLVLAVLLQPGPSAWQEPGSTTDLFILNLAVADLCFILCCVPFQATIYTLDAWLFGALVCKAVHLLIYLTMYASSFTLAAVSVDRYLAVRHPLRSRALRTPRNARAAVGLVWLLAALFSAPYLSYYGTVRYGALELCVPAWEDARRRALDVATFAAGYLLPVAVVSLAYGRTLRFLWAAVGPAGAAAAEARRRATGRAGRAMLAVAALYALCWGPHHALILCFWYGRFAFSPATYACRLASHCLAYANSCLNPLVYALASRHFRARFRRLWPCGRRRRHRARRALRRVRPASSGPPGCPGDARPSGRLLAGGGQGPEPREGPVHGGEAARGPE
# Assay: Radioligand binding at cloned human GAL3 receptor
# Settings: indolones, cloned human receptor; read-out: Ki GalR3
# Method: The present invention provides for a method of determining the binding affinity of a GAL3 antagonist, wherein the GAL3 antagonist is dissolved in a "suitable solvent". A "suitable solvent" means one which permits the measurement of binding affinity of the GAL3 antagonist to the human GAL3 receptor at concentrations less than 1 µM, preferably less than 100 nM. Examples of solvents include, but are not limited to, DMSO, ethanol, N,N-dimethylacetamide, or water. For indolones, the preferred solvent is 3% DMSO (final concentration in the assay). For pyrimidines, the preferred solvent is 1% ethanol/0.09% polypuronic acid F-127 (final concentration in the assay). For any other type of compounds, the preferred solvent is the solvent which permits the measurement of binding affinity of a GAL3 antagonist at the lowest concentration. Once a suitable solvent is ascertained for the binding assay of the human GAL3 receptor, the same solvent is used in assays to determine the binding affinity at the GAL1 receptor, the serotonin transporter, the norepinephrine transporter, and the dopamine transporter. A solvent of 0.4% DMSO is used in the central monoamine oxidase enzyme assay.
# The binding properties of the pyrimidines of the present invention were evaluated at the cloned human galanin receptors, GAL1, GAL2, and GAL3, using protocols described herein.
# The binding properties of the indolones of the present invention were evaluated at the cloned human galanin receptors, GAL1, GAL2, and GAL3, using protocols described herein.
# LM(tk-) cells were stably transfected with the human GAL1 or GAL3 receptor. CHO cells were stably transfected with the human GAL2 receptor.
# cDNAs for the human and rat GAL1, and human and rat GAL3 receptors were transfected with a G-418 resistant gene into the mouse fibroblast LM(tk-) cell line by a calcium phosphate transfection method (Cullen, 1987). Stably transfected cells were selected with G-418. Human and rat GAL2 receptors were similarly transfected into CHO cells.
# Membranes were harvested from stably transfected LM(tk-) cells. Adherent cells were washed twice in ice-cold phosphate buffered saline (138 mM NaCl, 8.1 mM Na2HPO4, 2.5 mM KCl, 1.2 mM KH2PO4, 0.9 mM CaCl2, 0.5 mM MgCl2, pH 7.4) and lysed by sonication in ice-cold sonication buffer (20 mM Tris-HCl, 5 mM EDTA, pH 7.7). Large particles and debris were cleared by low speed centrifugation (200 x g, 5 min, 4°C). Membranes were collected from the supernatant fraction by centrifugation (32,000 x g, 18 min, 4°C), washed with ice-cold hypotonic buffer, and collected again by centrifugation (32,000 x g, 18 min, 4°C). The final membrane pellet was resuspended by sonication into a small volume of ice-cold binding buffer (-1 ml for every 5 plates: 10 mM NaCl, 20 mM HEPES, 0.22 mM KH2PO4, 1.26 mM CaCl2, 0.81 mM MgSO4, pH 7.4). Protein concentration was measured by the Bradford method (Bradford, 1976) using Bio-Rad Reagent, with bovine serum albumin as a standard. Membranes were held on ice for up to one hour and used fresh, or flash frozen and stored in liquid nitrogen. Membranes were prepared similarly from CHO cells.
# Galanin Recentors: Binding assays were performed according to the following published methods: human GAL3 (PCT International Publication No. WO 98/15570), human GAL1 (PCT International Publication No. WO 95/2260), human GAL2 (PCT International Publication No. WO 97/26853).
# Binding data were analyzed using nonlinear regression and statistical techniques available in the GraphPAD Prism package (San Diego, CA). Enzymatic assay data were derived from a standard curve of reference compound data.
row,Structure (SMILES),Ki [nM]
1,"O=C1C(=Nc2cccc(C(F)(F)F)c2)c2ccccc2N1Cc1ccc(Cl)s1 (mixture of isomers) [Example 108, 1-[(5-CHLORO-2-THIENYL)METHYL]-3-{[3-(TRIFLUOROMETHYL)PHENYL]IMINO}-1,3-DIHYDRO-2H-INDOL-2-ONE]",84
2,"O=C1C(=Nc2cccc(C(F)(F)F)c2)c2ccccc2N1c1ccsc1 (mixture of isomers) [Example 109, 1-(3-THIENYL)-3-{[3-(TRIFLUOROMETHYL)PHENYL]IMINO}-1,3-DIHYDRO-2H-INDOL-2-ONE]",103
3,"O=C1C(=Nc2ccc3[nH]ccc3c2)c2ccccc2N1c1ccccc1 (mixture of isomers) [Example 112, 3-(1H-INDOL-5-YLIMINO)-1-PHENYL-1,3-DIHYDRO-2H-INDOL-2-ONE]",2320
4,O=C1C(=Nc2ccc(Cl)nc2)c2ccccc2N1c1ccccc1 (mixture of isomers) [Example 113],136
5,"Cc1nc2cc(N=C3C(=O)N(c4ccccc4)c4ccccc43)ccc2s1 (mixture of isomers) [Example 114, 3-[(2-METHYL-1,3-BENZOTHIAZOL-5-YL)IMINO]-1-PHENYL-1,3-DIHYDRO-2H-INDOL-2-ONE]",569
6,"O=C1C(=Nc2cccc(C(F)(F)F)c2)c2ccccc2N1Cc1csc2ccc(Cl)cc12 [Example 111, 1-[(5-CHLORO-1-BENZOTHIEN-3-YL)METHYL]-3-{[3-(TRIFLUOROMETHYL)PHENYL]IMINO}-1,3-DIHYDRO-2H-INDOL-2-ONE]",1180

# Same assay, conditions: pyrimidines, cloned human receptor; read-out: Ki GalR3
row,Structure (SMILES),Ki [nM]
1,Cc1ccc(Nc2cc(N3CCCCC3)nc(Nc3ccccc3)n2)cc1 [Example 3],163
2,Cc1ccc(Nc2cc(N3CCCCC3)nc(Nc3ccc(C)cc3)n2)cc1 [Example 4],627
3,Cc1ccc(Nc2cc(N3CCCCC3)nc(N(C)CCc3c[nH]c4ccccc34)n2)cc1Cl [Example 16],33
4,Cc1ccc(Nc2cc(N3CCCCC3)nc(N3CCN(Cc4ccccc4)CC3)n2)cc1 [Example 23],60
5,Cc1ccc(Nc2cc(N3CCCCC3)nc(N3CCN(c4cccc(C(F)(F)F)n4)CC3)n2)cc1 [Example 33],181
6,FC(F)(F)c1cccnc1N1CCN(c2nc(NC3CCCCC3)cc(N3CCCCC3)n2)CC1 [Example 35],111
7,Cc1ccc(Nc2cc(N3CCCCC3)nc(N3CCc4ccccc43)n2)cc1 [Example 39],128
8,Cc1ccc(Nc2cc(N3CCCCC3)nc(N3Cc4cccc5cccc(c45)C3)n2)cc1 [Example 43],107
9,COCCN(CCOC)c1nc(Nc2ccc(C)cc2)cc(N2CCCCC2)n1 [Example 45],505
10,CN(C)c1cc(Nc2ccccc2)nc(Nc2ccccc2)n1 [Example 50],699
11,Cc1ccccc1Nc1cc(N(C)C)nc(Nc2ccccc2)n1 [Example 51],987
12,Cc1cccc(Nc2cc(N(C)C)nc(Nc3ccccc3)n2)c1 [Example 52],570
13,Cc1ccc(Nc2nc(Nc3cccc(C)c3)cc(N(C)C)n2)cc1 [Example 53],980
14,Cc1ccc(Nc2cc(N(C)C)nc(Nc3ccccc3)n2)cc1 [Example 54],132
15,Cc1ccc(Nc2cc(N(C)C)nc(Nc3ccc(Cl)c(Cl)c3)n2)cc1 [Example 55],48
16,Cc1ccc(Nc2cc(N(C)C)nc(Nc3ccc(C)cc3)n2)cc1 [Example 56],794
17,CN(C)c1cc(Nc2cccc(F)c2)nc(Nc2ccccc2)n1 [Example 57],360
18,CN(C)c1cc(Nc2ccc(Br)cc2)nc(Nc2ccccc2)n1 [Example 59],566
19,CN(C)c1cc(Nc2ccc(C(C)(C)C)cc2)nc(Nc2ccccc2)n1 [Example 63],731
20,CN(C)c1cc(Nc2ccc(Oc3ccccc3)cc2)nc(Nc2ccccc2)n1 [Example 64],572
21,CN(C)c1cc(Nc2ccc3ccccc3c2)nc(Nc2ccccc2)n1 [Example 65],329
22,CN(C)c1cc(NC2CCCCC2)nc(Nc2ccccc2)n1 [Example 66],699
23,Cc1ccc(Nc2cc(N(C)C)nc(N3CCN(S(=O)(=O)c4ccc(C)cc4)CC3)n2)cc1 [Example 84],261
24,Cc1ccc(Nc2cc(N(C)C)nc(N3CCN(c4cccc(C)c4)CC3)n2)cc1 [Example 86],227
25,CN(C)c1cc(Nc2cccc(OCc3ccccc3)c2)nc(N2CCN(c3ccccn3)CC2)n1 [Example 115],13

row,Structure (SMILES),Ki [nM]
1,Cc1ccc(Nc2cc(N(C)C)nc(N3CCN(c4ccc(O)cc4)CC3)n2)cc1 [Example 116],479
2,CN(C)c1cc(Nc2ccc(OCc3ccccc3)cc2)nc(N2CCN(c3ccccn3)CC2)n1 [Example 117],61
3,CN(C)c1cc(Nc2ccc3c(c2)OCO3)nc(N2CCN(c3ccccn3)CC2)n1 [Example 118],508
4,CN(C)c1cc(Nc2ccc3c(c2)OCCO3)nc(N2CCN(c3ccccn3)CC2)n1 [Example 119],540
5,CN(C)c1cc(Nc2cncc3ccccc23)nc(N2CCN(c3ccccn3)CC2)n1 [Example 120],664
6,CN(C)c1cc(Nc2ccc(C3CCCCC3)cc2)nc(N2CCN(c3ccccn3)CC2)n1 [Example 121],21
7,CN(C)c1cc(Nc2cccc3c2CCCC3)nc(N2CCN(c3ccccn3)CC2)n1 [Example 122],65
8,CN(C)c1cc(Nc2ccc3c(c2)CCC3)nc(N2CCN(c3ccccn3)CC2)n1 [Example 123],61
9,CN(C)c1cc(Nc2ccc(Cl)c(Cl)c2)nc(N2CCN(c3ccccn3)CC2)n1 [Example 124],36
10,CN(C)c1cc(Nc2cccc(C(F)(F)F)c2)nc(N2CCN(c3ccccn3)CC2)n1 [Example 125],75
11,CN(C)c1cccc(Nc2cc(N(C)C)nc(N3CCN(Cc4ccccc4)CC3)n2)c1 [Example 126],99
12,Cc1nc2cc(Nc3cc(N(C)C)nc(N4CCN(Cc5ccccc5)CC4)n3)ccc2s1 [Example 127],255
13,CN(C)c1cc(NC2CCCCCC2)nc(N2CCN(Cc3ccccc3)CC2)n1 [Example 128],249
14,CN(C)c1cc(Nc2ccc(C#N)c(Cl)c2)nc(N2CCN(Cc3ccccc3)CC2)n1 [Example 129],405
15,CN(C)c1cc(NC2C3(C)CCC(C3)C2(C)C)nc(N2CCN(Cc3ccccc3)CC2)n1 (stereo not shown) [Example 130],100
16,Cc1ccc(Nc2cc(N(C)C)nc(N3CCN(c4cccc(OCc5ccccc5)c4)CC3)n2)cc1 [Example 131],20
17,CN(C)c1cc(Nc2cnc3ccccc3c2)nc(N2CCN(c3ccccn3)CC2)n1 [Example 132],618
18,CN(C)c1cc(Nc2ccc(Br)c(C(F)(F)F)c2)nc(N2CCN(c3ccccn3)CC2)n1 [Example 133],60
19,CN(C)c1cc(Nc2ccc(SC(F)(F)F)c(Cl)c2)nc(N2CCN(c3ccccn3)CC2)n1 [Example 134],25
20,CCOc1cccc(Nc2cc(N(C)C)nc(N3CCN(c4ccccn4)CC3)n2)c1 [Example 135],100
21,CN(C)c1cc(Nc2ccc(C(F)(F)F)cc2Cl)nc(N2CCN(c3ccccn3)CC2)n1 [Example 136],25
22,CN(C)c1cc(NC2C3CC4CC(C3)CC2C4)nc(N2CCN(Cc3ccccc3)CC2)n1 (stereo not shown) [Example 137],124
23,CN(C)c1cc(NC23CC4CC(CC(C4)C2)C3)nc(N2CCN(Cc3ccccc3)CC2)n1 [Example 138],52
24,C[C@H]1[C@H](Nc2cc(N(C)C)nc(N3CCN(Cc4ccccc4)CC3)n2)C[C@@H]2C[C@@H]1C2(C)C [Example 139],47
